Measurements: patent US9533977B2, “Oxazolidinone derivative as CETP inhibitor, its preparation method, and pharmaceutical composition comprising the same” (DONG-A ST CO., LTD., priority 2013, dated 2017)

What follows are compounds tested against T1, CETP (Homo sapiens, UniProt P11597) (assay: Inhibitory activity against CETP in human plasma (Roar CETP activity kit, fluorescence)). Settings: plasma from healthy men diluted 1:10 in assay buffer, 37° C., 3 hrs, fluorescence 465/535 nm; read-out: IC50, Inhibition of CETP Activity in Human Plasma.
T1 construct: from tissue; host or cells: human plasma from healthy men
T1 sequence (P11597 18-493): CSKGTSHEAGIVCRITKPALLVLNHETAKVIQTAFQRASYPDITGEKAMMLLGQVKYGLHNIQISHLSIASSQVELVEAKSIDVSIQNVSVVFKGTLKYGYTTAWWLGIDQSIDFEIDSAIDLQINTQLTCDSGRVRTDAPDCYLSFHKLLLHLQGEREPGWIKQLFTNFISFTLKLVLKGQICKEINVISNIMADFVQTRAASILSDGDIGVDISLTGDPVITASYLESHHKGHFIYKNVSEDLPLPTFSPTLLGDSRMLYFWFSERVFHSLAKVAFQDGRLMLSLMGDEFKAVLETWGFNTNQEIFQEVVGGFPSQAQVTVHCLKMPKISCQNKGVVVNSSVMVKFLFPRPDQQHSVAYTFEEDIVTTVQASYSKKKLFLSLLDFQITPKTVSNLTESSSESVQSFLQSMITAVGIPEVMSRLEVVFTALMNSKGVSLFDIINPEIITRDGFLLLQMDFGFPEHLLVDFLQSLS
Format: biochemical
Procedure: A CETP activity kit (#RB-CETP) was purchased from Roar […], Inc. A donor and an acceptor (each, 4 ul), a 10× assay buffer (177 ul), and each of dilutions of test compounds in dimethylsulfoxide (DMSO, Sigma-Aldrich) (0.01 nM˜10000 nM) were added to each well of black round-bottom 96-well plates (Corning #3792). Plasma samples from healthy men were diluted in the assay buffer (1:10=plasma:assay buffer), and added to each well. The plates were sealed with a sealing film (Sigma-Aldrich, #Z369659), and incubated in a 37° C. incubator microplate shaker (#SLST-3, Seolin Bio) for 3 hrs. After removal of the sealing film, fluorescence was read on Spectra Max Gemini EM (Molecular devices) with an excitation wavelength of 465 nm and an emission wavelength of 535 nm. Measurements were calculated according to the following formula. Calculated value=(Fluorescence Intensity with both compound and plasma−Fluorescence Intensity with compound but without plasma)/(Fluorescence Intensity with plasma but without compound−Fluorescence Intensity with neither compound nor plasma)
From the calculated value, a sigmoidal curve (y=start+(end-start)x^n/k^n+x^n) was drawn using Origin Software (OriginLab Corporation, ver. 8.0724) to obtain IC50 values.
`CCN(c1ncc(C(F)(F)F)cc1CN1C(=O)O[C@H](c2cc(C(F)(F)F)cc(C(F)(F)F)c2)[C@@H]1C)C1CCN(S(C)(=O)=O)CC1` [Example 32, (4S,5R)-5-[3,5-bis(trifluoromethyl)phenyl]-4-methyl-3-({[2-(ethyl)(1-methanesulfonylpiperidin-4-yl)amino]-5-trifluoromethylpyridin-3-yl}methyl)-oxazolidin-2-one] was tested, and the IC50 was 410 nM.
For `CCN(c1ncc(-c2cccc(C)c2)cc1CN1C(=O)O[C@H](c2cc(C(F)(F)F)cc(C(F)(F)F)c2)[C@@H]1C)C1CCOCC1` [Example 46, (4S,5R)-5-[3,5-bis(trifluoromethyl)phenyl]-4-methyl-3-({[2-(ethyl)(tetrahydro-2H-pyran-4-yl)amino]-5-(3-methylphenyl)pyridin-3-yl}methyl)-oxazolidin-2-one], the IC50 was 28 nM.
Work on `CCCCN(c1ncc(C(F)(F)F)cc1CN1C(=O)O[C@H](c2cc(C(F)(F)F)cc(C(F)(F)F)c2)[C@@H]1C)C1CCOCC1` [Example 9, (4S,5R)-5-[3,5-bis(trifluoromethyl)phenyl]-4-methyl-3-({[2-(butyl)(tetrahydro-2H-pyran-4-yl)amino]-5-(trifluoromethyl)pyridin-3-yl}methyl)-oxazolidin-2-one] yielded an IC50 of 68 nM.
`CCNC1CCC(N(CC)c2ncc(C(F)(F)F)cc2CN2C(=O)O[C@H](c3cc(C(F)(F)F)cc(C(F)(F)F)c3)[C@@H]2C)CC1` (stereo partly drawn) [Example 23, (4S,5R)-5-[3,5-bis(trifluoromethyl)phenyl]-4-methyl-3-({[2-(ethyl)(4-ethylaminocyclohexyl)amino]-5-(trifluoromethyl)pyridin-3-yl}methyl)-oxazolidin-2-one] showed an IC50 of 44.4 nM.
`CCOC(=O)N1CCC(N(CC)c2ncc(C(F)(F)F)cc2CN2C(=O)O[C@H](c3cc(C(F)(F)F)cc(C(F)(F)F)c3)[C@@H]2C)CC1` [Example 36, ethyl 4-{[3-({(4S,5R)-5-[3,5-bis(trifluoromethyl)phenyl]-4-methyl-2-oxo-oxazolidin-3-yl}methyl)-5-(trifluoromethyl)pyridin-2-yl](ethyl)amino}piperidine-1-carboxylate] showed an IC50 of 220 nM.
For `CCN(c1ncc(C(F)(F)F)cc1CN1C(=O)O[C@H](c2cc(C(F)(F)F)cc(C(F)(F)F)c2)[C@@H]1C)C1CCC(CC(=O)OC)CC1` (stereo partly drawn) [Example 24, methyl 2-(4-{[3-({(4S,5R)-5-[3,5-bis(trifluoromethyl)phenyl]-4-methyl-2-oxo-oxazolidin-3-yl}methyl)-5-(trifluoromethyl)pyridin-2-yl](ethyl)amino}cyclohexyl)acetate], the IC50 was 185 nM.
Compound `CCN(C[C@H]1CC[C@H](CC(=O)O)CC1)c1ncc(-c2cscn2)nc1CN1C(=O)OC(c2cc(C(F)(F)F)cc(C(F)(F)F)c2)[C@@H]1C` (stereo partly drawn) [Example 113] has an IC50 of 16 nM.
Work on `CCN(C[C@H]1CC[C@H](CC(=O)O)CC1)c1ncc(-c2ccc(C#N)cc2)nc1CN1C(=O)OC(c2cc(C(F)(F)F)cc(C(F)(F)F)c2)[C@@H]1C` (stereo partly drawn) [Example 117] yielded an IC50 of 11.7 nM.
`CCN(c1ncc(C(F)(F)F)cc1CN1C(=O)O[C@H](c2cc(C(F)(F)F)cc(C(F)(F)F)c2)[C@@H]1C)C1CCN(CC(=O)OC)CC1` [Example 38, methyl 2-(4-{[3-({(4S,5R)-5-[3,5-bis(trifluoromethyl)phenyl]-4-methyl-2-oxo-oxazolidin-3-yl}methyl)-5-(trifluoromethyl)pyridin-2-yl](ethyl)amino}piperidin-1-yl)acetate] was tested, and the IC50 was 19.3 nM.
`CCN(c1ncc(-c2ccnn2C)cc1CN1C(=O)O[C@H](c2cc(C(F)(F)F)cc(C(F)(F)F)c2)[C@@H]1C)C1CCCCC1` [Example 59, (4S,5R)-5-[3,5-bis(trifluoromethyl)phenyl]-4-methyl-3-({[2-(ethyl)(cyclohexyl)amino]-5-(1-methyl-1H-pyrazol-5-yl)pyridin-3-yl}methyl)-oxazolidin-2-one] was tested, and the IC50 was 5.7 nM.
With `CCN(c1ncc(-c2ccc(C#N)s2)cc1CN1C(=O)O[C@@H](c2cc(C(F)(F)F)cc(C(F)(F)F)c2)[C@@H]1C)C1CCCCC1` [Example 71, 5-{5-({(4S,5S)-5-[3,5-bis(trifluoromethyl)phenyl]-4-methyl-2-oxo-oxazolidin-3-yl}methyl)-6-[(cyclohexyl)(ethyl)amino]pyridin-3-yl}-thiophene-2-carbonitrile] the IC50 was 6.7 nM.
With `CCN(c1ncc(C(F)(F)F)cc1CN1C(=O)O[C@H](c2cc(C(F)(F)F)cc(C(F)(F)F)c2)[C@@H]1C)C1CCN(CC(=O)O)CC1` [Example 39, 2-(4-{[3-({(4S,5R)-5-[3,5-bis(trifluoromethyl)phenyl]-4-methyl-2-oxo-oxazolidin-3-yl}methyl)-5-(trifluoromethyl)pyridin-2-yl](ethyl)amino}piperidin-1-yl)acetic acid] the IC50 was 492 nM.
`CCN(C[C@H]1CC[C@H](CC(=O)O)CC1)c1ncc(-c2sccc2OC)nc1CN1C(=O)OC(c2cc(C(F)(F)F)cc(C(F)(F)F)c2)[C@@H]1C` (stereo partly drawn) [Example 109] gave an IC50 of 3.84 nM.
`CCN(C[C@H]1CC[C@H](CC(=O)O)CC1)c1ncc(-c2cn(C)nc2C)nc1CN1C(=O)OC(c2cc(C(F)(F)F)cc(C(F)(F)F)c2)[C@@H]1C` (stereo partly drawn) [Example 108] showed an IC50 of 45.9 nM.
`CCN(c1ncc(N2CCCC2)cc1CN1C(=O)O[C@H](c2cc(C(F)(F)F)cc(C(F)(F)F)c2)[C@@H]1C)C1CCOCC1` [Example 41, (4S,5R)-5-[3,5-bis(trifluoromethyl)phenyl]-4-methyl-3-({[2-(ethyl)(tetrahydro-2H-pyran-4-yl)amino]-5-(pyrrolidin-1-yl)pyridin-3-yl}methyl)-oxazolidin-2-one] showed an IC50 of 2.4 nM.
In the case of `CCN(CC1CCC(CC(=O)O)CC1)c1ncc(-c2nccs2)nc1CN1C(=O)OC(c2cc(C(F)(F)F)cc(C(F)(F)F)c2)C1C` [Example 112, trans-4-({[3-({(4S,5S)-5-[3,5-bis(trifluoromethyl)phenyl]-4-methyl-2-oxazolidin-3-yl}methyl)-5-(thiazol-2-yl)pyrazin-2-yl]{[N-(ethyl)aminomethyl]cyclohexyl)}acetic acid], the IC50 is reported as 37.4 nM.
In the case of `CCN(c1ncc(C(F)(F)F)cc1CN1C(=O)O[C@H](c2cc(C(F)(F)F)cc(C(F)(F)F)c2)[C@@H]1C)C1CCCCC1` [Example 53, (4S,5R)-5-[3,5-bis(trifluoromethyl)phenyl]-4-methyl-3-({[2-(ethyl)(cyclohexyl)amino]-5-(trifluoromethyl)pyridin-3-yl}methyl)-oxazolidin-2-one], the IC50 is reported as 5.2 nM.
In the case of `CCN(c1ncc(C(F)(F)F)cc1CN1C(=O)O[C@H](c2cc(C(F)(F)F)cc(C(F)(F)F)c2)[C@@H]1C)C1CCN(C)CC1` [Example 29, (4S,5R)-5-[3,5-bis(trifluoromethyl)phenyl]-4-methyl-3-({[2-(ethyl)(1-methylpiperidin-4-yl)amino]-5-(trifluoromethyl)pyridin-3-yl}methyl)-oxazolidin-2-one], the IC50 is reported as 540 nM.
With `CCN(c1ncc(-c2c(C)noc2C)cc1CN1C(=O)O[C@H](c2cc(C(F)(F)F)cc(C(F)(F)F)c2)[C@@H]1C)C1CCOCC1` [Example 51] the IC50 was 12.7 nM.
`CCN(c1ncc(C(F)(F)F)cc1CN1C(=O)O[C@H](c2cc(C(F)(F)F)cc(C(F)(F)F)c2)[C@@H]1C)C1CCCOC1` (stereo partly drawn) [Example 15, (4S,5R)-5-[3,5-bis(trifluoromethyl)phenyl]-4-methyl-3-({[2-ethyl(tetrahydro-2H-pyran-3-yl)amino]-5-(trifluoromethyl)pyridin-3-yl}methyl)-oxazolidin-2-one] was tested, and the IC50 was 10 nM.
`C[C@H]1[C@@H](c2cc(C(F)(F)F)cc(C(F)(F)F)c2)OC(=O)N1Cc1cc(C(F)(F)F)cnc1N(CCO)C1CCOCC1` [Example 18, (4S,5R)-5-[3,5-Bis(trifluoromethyl)phenyl]-4-methyl-3-({[2-(hydroxyethyl)(tetrahydro-2H-pyran-4-yl)amino]-5-(trifluoromethyl)pyridin-3-yl}methyl)-oxazolidin-2-one] gave an IC50 of 91 nM.
For “(4S,5R)-5-[3,5-bis(trifluoromethyl)phenyl]-4-methyl-3-({[2-(ethyl)(cyclohexyl)amino]-5-(1,3-dimethyl-1H-pyrazol-4-yl)pyridin-3-yl}methyl)-oxazolidin-2-one [Example 69]”, the IC50 was 13.4 nM.
`CCN(c1ncc(-c2cnn(C)c2)cc1CN1C(=O)O[C@H](c2cc(C(F)(F)F)cc(C(F)(F)F)c2)[C@@H]1C)C1CCCCC1` [Example 62, (4S,5R)-5-[3,5-bis(trifluoromethyl)phenyl]-4-methyl-3-({[2-(ethyl)(cyclohexyl)amino]-5-(1-methyl-1H-pyrazol-4-yl)pyridin-3-yl}methyl)-oxazolidin-2-one] was tested, and the IC50 was 151 nM.
Compound `CCN(C[C@H]1CC[C@H](CC(=O)O)CC1)c1ncc(-c2cccs2)nc1CN1C(=O)OC(c2cc(C(F)(F)F)cc(C(F)(F)F)c2)[C@@H]1C` (stereo partly drawn) [Example 114] has an IC50 of 10.3 nM.
